Data set [1] concerns OR6 cells. In words: Secondary assay cell viability (CellTiter-Glo). Particulars: 48 hours. The procedure: (§1) Secondary Assays-Hit Validation. Several hits from primary HTS, as well as functionally related compounds, were purchased from Sigma (St. Louis, Mo.), Calbiochem (San Diego, Calif.), and Microsource (Gaylordsville, Conn.). […] Ten mM of stock solutions of the individual compounds to be tested was prepared in the appropriate solvent (DMSO, ethanol, or H2O, according to the manufacturer's information) and stored at −20° C. Cells were seeded into 96-well plates at a density of 2000 cells/well in 100 μL of medium. The cells were incubated for 24 hours at 37° C. to obtain the optimal level of adherence. Solutions of candidate hit compounds were added to wells to achieve final concentrations of 0.1, 1, 10, 50, and 100 μM. The final concentration of DMSO or ethanol in every well was 1% or less by volume. Mock solutions were used as a negative control. PEG-IFN and ribavirin were used as positive controls at various concentrations, alone and in combination. The plates were then incubated at 37° C. with 5% CO2 for 48 hours before they were analyzed. Luminescent signal was generated using the Renilla luciferase assay kit (Promega) according to the manufacturer's instructions. Signal was then detected using a LumiCount (Packard BioScience Company) luminometer. Cell viability was assessed using CellTiter-Glo (Promega), following the manufacturer's instructions. All experiments were performed in triplicate.
(§2) Secondary Assays-Data Analysis. Values were presented as a percentage of mock treated control, which was arbitrarily set at 100%. Data were expressed as the mean (±) SD. […] Synergy calculations were performed using CalcuSyn (Biosoft; Cambridge, England).
(§3) Secondary Assays—Hit Validation: 10 mM of stock solutions of the individual compounds to be tested were prepared in DMSO and stored at −20° C. Cells were seeded into 96-well plates at a density of 2,000 cells/well in 100 μl of medium. The cells were incubated for 24 hours at 37° C. to obtain the optimal level of adherence. Solutions of candidate hit compounds were added to wells to achieve varying final concentrations between 0.01 and 100 μM. The final concentration of DMSO or ethanol in every well was 1% or less by volume. Mock solutions were used as a negative control. Peginterferon-alfa-2b (PEG-Intron; Schering Corp.; Kenilworth, N.J.) and ribavirin (Sigma; St. Louis, Mo.) were used as positive controls at various concentrations, alone and in combination. The plates were then incubated at 37° C. with 5% CO2 for 48 hours before they were analyzed. Luminescent signal was generated using the Renilla luciferase assay kit (Promega; Madison, Wis.) according to the manufacturer's instructions. Signal was then detected using a LumiCount™ (Packard BioScience Company; Downers Grove, Ill.) luminometer. Cell viability was assessed using CellTiter-Glo (Promega; Madison, Wis.), following the manufacturer's instructions. All experiments were performed in triplicate. Values were presented as a percentage of mock treated control, which was arbitrarily set at 100%. Data were expressed as the mean±SD.
Secondary Assays—Data Analysis: Values were presented as a percentage of mock treated control, which was arbitrarily set at 100%. Data were expressed as the mean±SD.

The subject of data set [2] is OR6 cells harboring full-length genotype 1b HCV replicon ORN/C-5B/KE (HCV RNA replication). In words: microbe, parasite or virus in culture. In kind it is cell-based, Hepatitis C virus (strain HCV—O. Conditions: 48 hours; for antiviral activity (in words): OR6 full-length replicon.
Source text: HCV Replicon System-Secondary Assays. For validation, OR6 cells stably harboring the full-length genotype 1 replicon, ORN/C-5B/KE9 were used to examine compound activity in a more authentic viral polyprotein context. This replicon was derived from the 1B-2 strain (strain HCV—O, genotype 1b), in which the Renilla luciferase gene is introduced as a fusion protein with neomycin to facilitate the monitoring of HCV replication. This construct contains a tissue culture adaptive mutation in the NS3 region. Cells were cultured in an identical manner to the Huh7/Rep-Feo cells.
as §1, §2
HCV Replicon System—Secondary Assays: For replicon validation, OR6 cells stably harboring the full-length genotype 1 replicon, ORN/C-5B/KE were used (Burke J. Am. Chem. Soc. (2004) 126:14095-14104). This replicon was derived from the 1B-2 strain (strain HCV—O, genotype 1b), in which the Renilla luciferase gene is introduced as a fusion protein with the Neomycin resistance cassette to facilitate the monitoring of HCV replication. This construct contains a tissue culture adaptive mutation in the NS3 region. Cells were cultured in an identical manner to the Huh7/Rep-Feo cells.
as §3, with “luminometer.” for “luminometer. Cell viability was assessed using CellTiter-Glo (Promega; Madison, Wis.), following the manufacturer's instructions. All experiments were performed in triplicate. Values were presented as a percentage of mock treated control, which was arbitrarily set at 100%. Data were expressed as the mean±SD.”
(Replicon systems follow genome replication, usually without infectious particles.)

Data set [3] deals with Huh7/Rep-Feo HCV replicon (HCV RNA replication). In kind it is cell-based, Hepatitis C virus (strain HCV—N, genotype 1b). The text has this: Development of the Huh7/Rep-Feo replicon assay. […] This replicon was derived from a chimpanzee infectious clone (strain HCV—N, genotype 1b). In this replicon, the structural genes have been replaced by a reporter gene. The chimeric reporter gene Feo encodes the firefly luciferase protein fused in-frame with neomycin phosphotransferase. This Huh7/Rep-Feo cell supports high levels of autonomous HCV RNA replication because it was derived from the HCV—N strain, which carries an adaptive mutation in NSSA that confers highlevel replication in tissue culture. Furthermore, the level of luciferase correlates well with levels of HCV RNA production, so that luciferase can be used as a reliable surrogate marker for HCV replication. The use of luciferase as a reporter permits quantitative and highthroughput detection of HCV replication levels. The specific use of firefly luciferase makes this replicon especially well-suited for automation, because the luciferase reagent can be added directly to the cell culture system prior to signal detection without the need for cell lysis, washing, or aspiration.
HCV Replicon System-Primary Screening. […] Briefly, this replicon harbors a subgenomic HCV genotype 1b sequence, fused to firefly luciferase, stably replicating under neomycin selection. Cells were propagated in Dulbecco's Modified Eagle's medium (DMEM) containing 10% fetal bovine serum (FBS) supplemented with 1% penicillin-streptomycin, and 500 μg of Geneticin (Invitrogen Corp., Carlsbad, Calif.)/mL. Cells were cultured in a 37° C., 5% CO2-humidified incubator for all experiments. To decrease day-today variability in the assay, a large homogenous population of subconfluent cells was passaged so that a similar lot of cells could be used throughout the HTS assay.
Primary Screening-HTS. Information about the library of known bioactive compounds that was screened and the general automated HTS protocol is available at http://www.broad.harvard.edu/chembio/index.html (see FIG. 10 for list of primary HTS with known bioactives library). Based on the results of optimization experiments in the 384-well plate format, the general HTS protocol was adapted as follows. Unless otherwise indicated, cells were incubated at all times in a humidified environment with 5% CO2 at 37° C. The assay was initiated by plating 30 μL of medium containing 2000 cells/well into white 384-well opaque-bottom plates (Nunc, Rochester, N.Y.) using an automated plate filler (Bio-Tek uFiller; Winsooki, Vt.) and allowing the cells to adhere for 24 hours. One hundred nL of compound stock solutions in DMSO was transferred from stock plates into the 384-well assay plates using an automated pin-based compound transfer robot (CyBio CyBi-Well vario; Woburn, Mass.). The final compound concentration in each well was estimated to be approximately 10-50 μM, with most compounds at 33 μM. The wells contained 0.33% DMSO by volume. The cells were then incubated for another 48 hours. The luminescent signal from each plate was detected using an automated plate reader (Perkin-Elmer Envision 1; Wellesley, Mass.). This screen was performed in duplicate. For negative controls, entire DMSO-treated control plates were employed, in addition to DMSO-only control wells that were incorporated into each compound assay plate. The cells were assayed for luciferase activity using the Bright-Glo Luciferase assay system (Promega), following the manufacturer's instructions. As a counter-screen, cell viability was assessed using the CellTiterGlo Luminescent cell viability assay (Promega) following the manufacturer's instructions.
Computational Data Analysis-Primary Screening. For each replicate, a mock-treatment distribution based on the total population of mock (DMSO) controls in that replicate was built (FIG. 11).

Structures are written as SMILES. Where two headings read alike, the source gives them in different places.

Regarding `Clc1cccc(Nc2nnc(-c3ccccc3)c3ccccc23)c1` [MY-5445], in data set [1], the “cytotoxicity (in words)” value is “significant cytotoxicity”. The “antiviral activity (in words)” value in data set [2] is “decreased the luciferase signal in a dose-related manner”. For the same molecule, the “primary screen hit result (in words)” value in data set [3] (known bioactives library, approximately 10-50 μM, most at 33 μM) is reported as “Antiviral”.

Consider `O=C1[C@@]2(CO)C=C(I)C(CC2c2ccccc2)[C@@]12CO2` (stereo partly drawn) [SM_A14B5], for which the “concentrations at which cytotoxic effects were exhibited” value in data set [1] was “above 30 μM”. In addition, in data set [2] (Hepatitis C virus, OR6, 48 h, read-out: IC50 (HCV RNA replication, luciferase), OR6 full-length genotype 1b replicon), the IC50 is roughly 3.5 µM.

Take `CC[C@H](C)C(=O)O[C@H]1CCC=C2C=C[C@H](C)[C@H](CC[C@@H]3C[C@@H](O)CC(=O)O3)[C@H]21` [Mevastatin, mevastatin]: in data set [1], the “cytotoxicity (in words)” value was “not cytotoxic”. For the same molecule, in data set [2], the “antiviral activity (in words)” value is on record as “weakly inhibitory”.

On to `C[S+]([O-])c1ccc(-c2nc(-c3ccncc3)c(-c3ccc(F)cc3)[nH]2)cc1` (stereo not drawn) [SB 203580], for which the “cytotoxicity (in words)” value in data set [1] is reported as “cytotoxicity at higher concentrations”. In addition, the “antiviral activity (in words)” value in data set [2] is “antiviral activity at a concentration of 10 μM”. Also, in data set [3], the “primary screen hit result (in words)” value is listed as “Antiviral”.

As to `Cc1c(C)c2c(c(C)c1O)CCC(C)(COc1ccc(CC3SC(=O)NC3=O)cc1)O2` (stereo not drawn) [Troglitazone, troglitazone], the “concentrations at which cytotoxic effects were exhibited” value in data set [1] was no less than 50 µM.

Turning to `COc1ccc2cc1Oc1ccc(cc1)C[C@H]1c3cc(c(OC)cc3CCN1C)Oc1c(OC)c(OC)cc3c1[C@H](C2)N(C)CC3` [tetrandrine], the “cytotoxicity (in words)” value in data set [1] was “cytotoxicity”.

The IC50 is the concentration that inhibits the measured activity by half.

The values above are taken from patent publication US20120094939A1, “ANTI-VIRAL COMPOUNDS, COMPOSITIONS AND METHODS” (priority 2007, published 2012).
